According to patent US10258039B2, “Substituted pyrazolylpyrazole derivative and use of same as herbicide” (KYOYU AGRI CO., LTD., priority 2015, dated 2019):

Assays:
Assay type in all cases: in vivo
Chenopodium album [1] = experiment: Farming soil treatment test; conditions: soil surface spray prior to weed growth, 30 days, 30° C.
Procedure: (§1) 2. Farming Soil Treatment Test
(§2) Field soil was filled into a 1/6000 are pot followed by seeding with Digitaria ciliaris, Chenopodium album and Amaranthus retroflexus and covering with soil.
(§3) Wettable powders of compounds of formula (I) shown in Table 1 prepared in compliance with the preparation examples were diluted with water to the prescribed amount of chemical and uniformly sprayed onto each soil surface layer using 100 liters of sprayed water per 10 are prior to weed growth following seeding.
(§4) After treating for 30 days in a glass greenhouse at an average atmospheric temperature of 30° C., the herbicidal efficacy thereof was investigated.
(§5) Evaluation of herbicidal efficacy was carried out in the same manner as the above-mentioned Test Example 1.

Amaranthus retroflexus [2] = experiment: Farming soil treatment test; conditions: soil surface spray prior to weed growth, 30 days, 30° C.
Procedure: as §1, §2, §3, §4, §5

Digitaria ciliaris [3] = experiment: Farming soil treatment test; conditions: soil surface spray prior to weed growth, 30 days, 30° C.
Procedure: as §1, §2, §3, §4, §5

Oryza sativa = experiment: Paddy herbicidal activity test, phytotoxicity to transplanted rice; conditions: rice transplanted at 2.0 leaf stage, 30 days, 30° C.
Procedure: (§6) 1. Paddy Herbicidal Activity Test
(§7) Rice paddy soil was filled into a 1/10000 are pot followed by the addition of suitable amounts of water and chemical fertilizer, kneading, seeding with Echinochloa crus-galli, Monochoria vaginalis and Scirpus juncoides and maintaining in an irrigated state at a water depth of 3 cm.
(§8) Wettable powders of Target Compound (I) shown in. Table 1 prepared in compliance with the preparation examples were diluted with a suitable amount of water, rice plants in the 2.0 leaf stage were transplanted during 3.5 leaf stage of Echinochloa crus-galli, and treated by dropping in chemical in the prescribed amount per 10 are using a pipette.
as §4
(§9) Evaluation of herbicidal efficacy was carried out by comparing growth inhibition rate (%) with an untreated group, while evaluation of phytotoxicity was carried out by comparing growth inhibition rate (%) with the state of a complete eradication group, and were evaluated at 11 levels indicated below.

Echinochloa crus-galli = experiment: Paddy herbicidal activity test; conditions: irrigated paddy pot, treated at 3.5 leaf stage of Echinochloa crus-galli, 30 days, 30° C.
Procedure: as §6, §7, §8, §4, §9

Monochoria vaginalis = experiment: Paddy herbicidal activity test; conditions: irrigated paddy pot, 30 days, 30° C.
Procedure: as §6, §7, §8, §4, §9

Scirpus juncoides = experiment: Paddy herbicidal activity test; conditions: irrigated paddy pot, 30 days, 30° C.
Procedure: as §6, §7, §8, §4, §9

Chenopodium album [4] = experiment: Weed foliar treatment test (Test 3, 1.0 to 2.0 leaf stage); conditions: foliar spray at 1.0 to 2.0 leaf stage of Digitaria ciliaris, 3 weeks, 25° C.
Procedure: (§10) 3. Weed Foliar Treatment Test
(§11) Soil was filled into a 1/6000 are pot followed by seeding with Digitaria ciliaris, Chenopodium album and Amaranthus retroflexus, covering with soil, and cultivating in a glass greenhouse at an average atmospheric temperature of 25° C.
(§12) Wettable powders of Target Compound (I) shown in Table 1 prepared in compliance with the preparation examples were diluted with water to the prescribed amount of chemical and uniformly sprayed onto the weeds using 150 liters of sprayed water per 10 are when Digitaria ciliaris had grown to the 1.0 to 2.0 leaf stage.
(§13) After treating for 3 weeks in a glass greenhouse at an average atmospheric temperature of 25° C., the herbicidal efficacy thereof was investigated.
as §5

Amaranthus retroflexus [5] = experiment: as above; conditions: foliar spray at 1.0 to 2.0 leaf stage of Digitaria ciliaris, 3 weeks, 25° C.
Procedure: as §10, §11, §12, §13, §5

Digitaria ciliaris [6] = experiment: as above; conditions: foliar spray at 1.0 to 2.0 leaf stage of Digitaria ciliaris, 3 weeks, 25° C.
Procedure: as §10, §11, §12, §13, §5

Digitaria ciliaris [7] = experiment: Weed foliar treatment test (Test 4, 4.0 to 5.0 leaf stage); conditions: 10g a.i./10a; foliar spray at 4.0 to 5.0 leaf stage of Digitaria ciliaris (plant height 10 cm to 15 cm); 20 days, 25° C.
Procedure: (§14) 4. Weed Foliar Treatment Test
(§15) Field soil was filled into a 1/4500 are pot followed by seeding with Digitaria ciliaris and Galinsoga parviflora, covering with soil and cultivating in a glass greenhouse at an average atmospheric temperature of 25° C.
as §12, with “100” for “150”, “4.0” for “1.0”, “5.0” for “2.0”, “stage (plant height: 10 cm to 15 cm).” for “stage.”
(§16) After treating for 20 days in a glass greenhouse at an average atmospheric temperature of 25° C., the herbicidal efficacy thereof was investigated.
as §5

Galinsoga parviflora = experiment: as above; conditions: 10g a.i./10a; foliar spray at 4.0 to 5.0 leaf stage of Digitaria ciliaris; 20 days, 25° C.
Procedure: as §14, §15
as §12, with “100” for “150”, “4.0” for “1.0”, “5.0” for “2.0”, “stage (plant height: 10 cm to 15 cm).” for “stage.”
as §16, §5

SMILES	herbicidal efficacy, Chenopodium album (Chenopodium album [1]; 5g a.i./10a)	herbicidal efficacy, Chenopodium album (Chenopodium album [1]; 10g a.i./10a)	herbicidal efficacy, Amaranthus retroflexus (Amaranthus retroflexus [2]; 5g a.i./10a)	herbicidal efficacy, Amaranthus retroflexus (Amaranthus retroflexus [2]; 10g a.i./10a)	herbicidal efficacy, Digitaria ciliaris (Digitaria ciliaris [3]; 5g a.i./10a)	herbicidal efficacy, Digitaria ciliaris (Digitaria ciliaris [3]; 10g a.i./10a)	herbicidal efficacy, Digitaria ciliaris (Digitaria ciliaris [7])	herbicidal efficacy, Galinsoga parviflora (Galinsoga parviflora)	other results
CN(C(=O)CC1CC1)c1c(C#N)cnn1-c1nn2c(c1Cl)CCCC2 [Compound 1, Methyl N-(1-(3-chloro-4,5,6,7-tetrahydropyrazolo[1,5-a]pyridin-2-yl)4-cyanopyrazol-5-yl)-2-cyclopropyl Acetoamide]	10 (10: 100%)	10 (10: 100%)	10 (10: 100%)	10 (10: 100%)	9 (9: 90% to less than 100%)	10 (10: 100%)			
O=C(Nc1c([N+](=O)[O-])cnn1-c1nn2c(c1Cl)CCCC2)C1CC1 [Compound 2]	9 (9: 90% to less than 100%)	9 (9: 90% to less than 100%)	10 (10: 100%)	10 (10: 100%)	9 (9: 90% to less than 100%)	9 (9: 90% to less than 100%)	10 (10: 100%)	10 (10: 100%)	phytotoxicity, Oryza sativa (Oryza sativa; 1g a.i./10a): 1 (1: 10% to less than 20%); phytotoxicity, Oryza sativa (Oryza sativa; 5g a.i./10a): 1 (1: 10% to less than 20%); herbicidal efficacy, Echinochloa crus-galli (Echinochloa crus-galli; 1g a.i./10a): 10 (10: 100%); herbicidal efficacy, Echinochloa crus-galli (Echinochloa crus-galli; 5g a.i./10a): 10 (10: 100%); herbicidal efficacy, Monochoria vaginalis (Monochoria vaginalis; 1g a.i./10a): 10 (10: 100%); herbicidal efficacy, Monochoria vaginalis (Monochoria vaginalis; 5g a.i./10a): 10 (10: 100%); herbicidal efficacy, Scirpus juncoides (Scirpus juncoides; 1g a.i./10a): 9 (9: 90% to less than 100%); herbicidal efficacy, Scirpus juncoides (Scirpus juncoides; 5g a.i./10a): 9 (9: 90% to less than 100%); herbicidal efficacy, Chenopodium album (Chenopodium album [4]; 5g a.i./10a): 10 (10: 100%); herbicidal efficacy, Chenopodium album (Chenopodium album [4]; 10g a.i./10a): 10 (10: 100%); herbicidal efficacy, Amaranthus retroflexus (Amaranthus retroflexus [5]; 5g a.i./10a): 10 (10: 100%); herbicidal efficacy, Amaranthus retroflexus (Amaranthus retroflexus [5]; 10g a.i./10a): 10 (10: 100%); herbicidal efficacy, Digitaria ciliaris (Digitaria ciliaris [6]; 5g a.i./10a): 10 (10: 100%); herbicidal efficacy, Digitaria ciliaris (Digitaria ciliaris [6]; 10g a.i./10a): 10 (10: 100%)
CC1(C(=O)Nc2c(C#N)cnn2-c2nn3c(c2Cl)CCCC3)CC1 [Compound 3]							10 (10: 100%)	10 (10: 100%)	
N#Cc1cnn(-c2nn3c(c2Cl)CCCC3)c1NC(=O)C1CCC1 [Compound 4]							10 (10: 100%)	10 (10: 100%)	
N#Cc1cnn(-c2nn3c(c2Cl)CCCC3)c1NC(=O)C1CCCC1 [Compound 5]							10 (10: 100%)	10 (10: 100%)	
O=C(Nc1c([N+](=O)[O-])cnn1-c1nn2c(c1Cl)CCCC2)C1CCCC1 [Compound 6]	9 (9: 90% to less than 100%)	9 (9: 90% to less than 100%)	10 (10: 100%)	10 (10: 100%)	9 (9: 90% to less than 100%)	9 (9: 90% to less than 100%)	9 (9: 90% to less than 100%)	10 (10: 100%)	phytotoxicity, Oryza sativa (Oryza sativa; 1g a.i./10a): 0 (0 (exponent): 0% to less than 10% (growth inhibition rate)); phytotoxicity, Oryza sativa (Oryza sativa; 5g a.i./10a): 1 (1: 10% to less than 20%); herbicidal efficacy, Echinochloa crus-galli (Echinochloa crus-galli; 1g a.i./10a): 10 (10: 100%); herbicidal efficacy, Echinochloa crus-galli (Echinochloa crus-galli; 5g a.i./10a): 10 (10: 100%); herbicidal efficacy, Monochoria vaginalis (Monochoria vaginalis; 1g a.i./10a): 10 (10: 100%); herbicidal efficacy, Monochoria vaginalis (Monochoria vaginalis; 5g a.i./10a): 10 (10: 100%); herbicidal efficacy, Scirpus juncoides (Scirpus juncoides; 1g a.i./10a): 9 (9: 90% to less than 100%); herbicidal efficacy, Scirpus juncoides (Scirpus juncoides; 5g a.i./10a): 9 (9: 90% to less than 100%); herbicidal efficacy, Chenopodium album (Chenopodium album [4]; 5g a.i./10a): 10 (10: 100%); herbicidal efficacy, Chenopodium album (Chenopodium album [4]; 10g a.i./10a): 10 (10: 100%); herbicidal efficacy, Amaranthus retroflexus (Amaranthus retroflexus [5]; 5g a.i./10a): 10 (10: 100%); herbicidal efficacy, Amaranthus retroflexus (Amaranthus retroflexus [5]; 10g a.i./10a): 10 (10: 100%); herbicidal efficacy, Digitaria ciliaris (Digitaria ciliaris [6]; 5g a.i./10a): 10 (10: 100%); herbicidal efficacy, Digitaria ciliaris (Digitaria ciliaris [6]; 10g a.i./10a): 10 (10: 100%)
N#Cc1cnn(-c2nn3c(c2Cl)CCCC3)c1NC(=O)C1CCCCC1 [Compound 7]							10 (10: 100%)	10 (10: 100%)	
O=C(CC1CC1)Nc1c([N+](=O)[O-])cnn1-c1nn2c(c1Cl)CCCC2 [Compound 8]	10 (10: 100%)	10 (10: 100%)	10 (10: 100%)	10 (10: 100%)	9 (9: 90% to less than 100%)	10 (10: 100%)	9 (9: 90% to less than 100%)	10 (10: 100%)	phytotoxicity, Oryza sativa (Oryza sativa; 1g a.i./10a): 0 (0 (exponent): 0% to less than 10% (growth inhibition rate)); phytotoxicity, Oryza sativa (Oryza sativa; 5g a.i./10a): 0 (0 (exponent): 0% to less than 10% (growth inhibition rate)); herbicidal efficacy, Echinochloa crus-galli (Echinochloa crus-galli; 1g a.i./10a): 9 (9: 90% to less than 100%); herbicidal efficacy, Echinochloa crus-galli (Echinochloa crus-galli; 5g a.i./10a): 10 (10: 100%); herbicidal efficacy, Monochoria vaginalis (Monochoria vaginalis; 1g a.i./10a): 10 (10: 100%); herbicidal efficacy, Monochoria vaginalis (Monochoria vaginalis; 5g a.i./10a): 10 (10: 100%); herbicidal efficacy, Scirpus juncoides (Scirpus juncoides; 1g a.i./10a): 9 (9: 90% to less than 100%); herbicidal efficacy, Scirpus juncoides (Scirpus juncoides; 5g a.i./10a): 10 (10: 100%); herbicidal efficacy, Chenopodium album (Chenopodium album [4]; 5g a.i./10a): 10 (10: 100%); herbicidal efficacy, Chenopodium album (Chenopodium album [4]; 10g a.i./10a): 10 (10: 100%); herbicidal efficacy, Amaranthus retroflexus (Amaranthus retroflexus [5]; 5g a.i./10a): 10 (10: 100%); herbicidal efficacy, Amaranthus retroflexus (Amaranthus retroflexus [5]; 10g a.i./10a): 10 (10: 100%); herbicidal efficacy, Digitaria ciliaris (Digitaria ciliaris [6]; 5g a.i./10a): 9 (9: 90% to less than 100%); herbicidal efficacy, Digitaria ciliaris (Digitaria ciliaris [6]; 10g a.i./10a): 10 (10: 100%)
N#Cc1cnn(-c2nn3c(c2Cl)CCCC3)c1NC(=O)CC1CCCC1 [Compound 29]							10 (10: 100%)	10 (10: 100%)	
N#Cc1cnn(-c2nn3c(c2Cl)CCCC3)c1NC(=O)CCC1CCCC1 [Compound 30]							10 (10: 100%)	10 (10: 100%)	
N#Cc1cnn(-c2nn3c(c2Cl)CCCC3)c1NC(=O)CCC1CC=CCC1 (centres unmarked) [Compound 31]							10 (10: 100%)	10 (10: 100%)	
